In patent publication US20260001928A1 (CORTERIA PHARMACEUTICALS, priority 2022, published 2026):
*1 amine or outer side, *2 acyl side, *3 side chain or, on linkers, in order; H or OH if unused. Where a SMILES comes first, the peptide text is derived from it. Side-chain parts run from the residue outwards. [ ]: non-standard residue; d: D form. The star is where a group is joined. C20 diacid = O=C(O)CCCCCCCCCCCCCCCCCCC(=O)*; C18 diacid = O=C(O)CCCCCCCCCCCCCCCCC(=O)*; C16 diacid = O=C(O)CCCCCCCCCCCCCCC(=O)*; γGlu = O=C(O)[C@H](CCC(=O)[*:2])N[*:1]; NMeI = CC[C@H](C)[C@H](NC)C(=O)O; αMeL = CC(C)C[C@](C)(N)C(=O)O; Lauroyl = CCCCCCCCCCCC(=O)*; Api = NC1(C(=O)O)CCNCC1; Dap = NC[C@H](N)C(=O)O; AEEA = NCCOCCOCC(=O)O; Aib = CC(C)(N)C(=O)O

What was measured:
human CRF2a receptor = target: T1, human CRF2a receptor (Homo sapiens, UniProt Q13324); assay: Activity at human CRF2a receptor, cAMP functional assay in TeloHEAC cells; format: cell-based; details: TeloHEAC cells stably expressing human CRF2a receptor, relative to urocortin 2 (100 nM = 100%)
T1 construct: expressed in transfected cells; host or cells: TeloHEAC cells
T1 sequence (Q13324 1-411): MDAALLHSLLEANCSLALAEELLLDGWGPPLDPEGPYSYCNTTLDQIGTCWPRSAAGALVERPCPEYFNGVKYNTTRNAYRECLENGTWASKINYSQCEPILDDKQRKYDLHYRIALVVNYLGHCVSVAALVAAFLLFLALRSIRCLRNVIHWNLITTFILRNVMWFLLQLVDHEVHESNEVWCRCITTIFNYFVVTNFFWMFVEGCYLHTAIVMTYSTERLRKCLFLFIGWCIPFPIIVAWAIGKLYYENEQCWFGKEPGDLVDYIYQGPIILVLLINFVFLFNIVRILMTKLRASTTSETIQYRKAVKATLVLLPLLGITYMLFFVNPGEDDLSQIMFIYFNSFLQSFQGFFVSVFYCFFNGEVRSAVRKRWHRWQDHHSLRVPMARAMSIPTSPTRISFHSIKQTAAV
Summary of the method: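 cAMP accumulation was measured by HTRF 665/620 nm ratio after 30 min at 37° C compound exposure (16 twofold dilutions) of CRF2a-expressing TeloHEAC cells, 10000/well, in HEPES-buffered HBSS plus IBMX. Activity was normalised to urocortin 2 at 100 nM (100%), and EC50 was the concentration giving half-maximal activation.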

CFR1R receptor = target: T2, CFR1R receptor (Homo sapiens, UniProt P34998); assay: Activity at anti-target CFR1R receptor, cAMP assay in CRF1R-overexpression CHO-K1 cells; format: cell-based; details: 100% = Sauvagine at 100 nM; for EC50: cAMP
T2 construct: host or cells: CHO-K1 (clone 2)
T2 sequence (P34998 24-415): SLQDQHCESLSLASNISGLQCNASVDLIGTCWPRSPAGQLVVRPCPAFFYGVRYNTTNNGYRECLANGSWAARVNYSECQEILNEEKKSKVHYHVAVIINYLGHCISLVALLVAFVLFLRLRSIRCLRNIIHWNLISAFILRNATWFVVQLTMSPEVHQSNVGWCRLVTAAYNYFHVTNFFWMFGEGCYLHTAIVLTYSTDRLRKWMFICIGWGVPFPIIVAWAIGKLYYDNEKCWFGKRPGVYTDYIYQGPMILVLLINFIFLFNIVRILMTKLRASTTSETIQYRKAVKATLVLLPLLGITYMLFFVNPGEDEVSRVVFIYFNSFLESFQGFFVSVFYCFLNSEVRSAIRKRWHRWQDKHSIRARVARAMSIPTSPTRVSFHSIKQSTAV
Summary of the method: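 The method mirrors that used with TeloHAEC cells. Here, thawed clone 2 cells seeded at 4000 cells/well are tested, and 100 nM Sauvagine sets the top of the activation scale.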

**Q.** Which EC50 (human CRF2a receptor) does the source give for CC[C@H](C)[C@H](NC(C)=O)C(=O)N[C@H](C(=O)N[C@@H](CC(C)C)C(=O)N[C@@H](CO)C(=O)N[C@@H](CC(C)C)C(=O)N[C@@H](CC(=O)O)C(=O)N[C@@H](C(=O)N1CCC[C@H]1C(=O)N[C@H](C(=O)N[C@@H](CCCCN)C(=O)N[C@@H](CC(C)C)C(=O)N[C@@H](CCCCNC(=O)COCCOCCNC(=O)COCCOCCNC(=O)CC[C@H](NC(=O)CCCCCCCCCCCCCCCCC(=O)O)C(=O)O)C(=O)N[C@@H](CCCCN)C(=O)N[C@H](C(=O)N[C@@H](CC(C)C)C(=O)N[C@@H](CC(C)C)C(=O)N[C@@H](CCC(=O)O)C(=O)N[C@@H](CCC(N)=O)C(=O)N[C@@H](CCC(=O)O)C(=O)N[C@@H](CCCCN)C(=O)N[C@@H](CCC(N)=O)C(=O)N[C@@H](CCCCN)C(=O)N[C@@H](CCCCN)C(=O)N[C@@H](CCC(N)=O)C(=O)N[C@@H](CCCNC(=N)N)C(=O)N[C@@H](CCC(=O)O)C(=O)N[C@@H](CCC(N)=O)C(=O)N[C@@H](C)C(=O)N[C@@H](CCC(=O)O)C(=O)N[C@H](C(=O)N[C@@H](CC(N)=O)C(=O)N[C@@H](CN)C(=O)N[C@@H](CCC(N)=O)C(=O)N[C@H](C(=O)N[C@@H](CC(C)C)C(=O)N[C@@H](C)C(=O)N[C@@H](CCC(N)=O)C(=O)N[C@H](C(N)=O)C(C)C)[C@@H](C)CC)[C@@H](C)O)[C@@H](C)CC)[C@@H](C)CC)C(C)C)C(C)C [compound 107] (Ac-IVLSLD[dV]PIKLK([AEEA-AEEA-γGlu-C18 diacid])KILLEQEKQKKQREQAETN[Dap]QILAQV-NH2) here?
**A.** 1430 pM

**Q.** And the “Emax (% I)” value (CFR1R receptor)?
**A.** 0 % I

**Q.** And the EC50 (CFR1R receptor)?
**A.** > 250000 pM

**Q.** CCCCCCCCCCCC(=O)N[C@H](C(=O)N[C@@H](CC(C)C)C(=O)N[C@@H](CO)C(=O)N[C@@H](CC(C)C)C(=O)N[C@@H](CC(=O)O)C(=O)N[C@@H](C(=O)N1CCC[C@H]1C(=O)N[C@H](C(=O)N[C@@H](CCCCN)C(=O)N[C@@H](CC(C)C)C(=O)N[C@@H](CCCCNC(=O)CC[C@H](NC(=O)CCCCCCCCCCCCCCCCCCC(=O)O)C(=O)O)C(=O)N[C@@H](CCCCN)C(=O)N[C@H](C(=O)N[C@@H](CC(C)C)C(=O)N[C@@H](CC(C)C)C(=O)N[C@@H](CCC(=O)O)C(=O)N[C@@H](CCC(N)=O)C(=O)N[C@@H](CCC(=O)O)C(=O)N[C@@H](CCCCN)C(=O)N[C@@H](CCC(N)=O)C(=O)N[C@@H](CCCCN)C(=O)N[C@@H](CCCCN)C(=O)N[C@@H](CCC(N)=O)C(=O)N[C@@H](CCCNC(=N)N)C(=O)N[C@@H](CCC(=O)O)C(=O)N[C@@H](CCC(N)=O)C(=O)N[C@@H](C)C(=O)N[C@@H](CCC(=O)O)C(=O)N[C@H](C(=O)N[C@@H](CC(N)=O)C(=O)NC(C)(C)C(=O)N[C@@H](CCC(N)=O)C(=O)N[C@H](C(=O)N[C@@H](CC(C)C)C(=O)N[C@@H](C)C(=O)N[C@@H](CCC(N)=O)C(=O)N[C@H](C(N)=O)C(C)C)[C@@H](C)CC)[C@@H](C)O)[C@@H](C)CC)[C@@H](C)CC)C(C)C)C(C)C [compound 224] (Lauroyl-VLSLD[dV]PIKLK([γGlu-C20 diacid])KILLEQEKQKKQREQAETN[Aib]QILAQV-NH2) was tested. Which EC50 (human CRF2a receptor) did it give?
**A.** 70 pM

**Q.** What about the “Emax (% I)” value (CFR1R receptor) of the same molecule?
**A.** 66 % I

**Q.** What does the source list for CC[C@H](C)[C@H](NC)C(=O)N[C@H](C(=O)N[C@@H](CC(C)C)C(=O)N[C@@H](CO)C(=O)N[C@@H](CC(C)C)C(=O)N[C@@H](CC(=O)O)C(=O)N[C@@H](C(=O)N1CCC[C@H]1C(=O)N[C@H](C(=O)N[C@@H](CCCCN)C(=O)N[C@@H](CC(C)C)C(=O)N[C@@H](CCCCNC(=O)CC[C@H](NC(=O)CCCCCCCCCCCCCCC(=O)O)C(=O)O)C(=O)N[C@@H](CCCCN)C(=O)N[C@H](C(=O)N[C@@H](CC(C)C)C(=O)N[C@@H](CC(C)C)C(=O)N[C@@H](CCC(=O)O)C(=O)N[C@@H](CCC(N)=O)C(=O)N[C@@H](CCC(=O)O)C(=O)N[C@@H](CCCCN)C(=O)N[C@@H](CCC(N)=O)C(=O)N[C@@H](CCCCN)C(=O)N[C@@H](CCCCN)C(=O)N[C@@H](CCC(N)=O)C(=O)N[C@@H](CCCNC(=N)N)C(=O)N[C@@H](CCC(=O)O)C(=O)N[C@@H](CCC(N)=O)C(=O)N[C@@H](C)C(=O)N[C@@H](CCC(=O)O)C(=O)N[C@H](C(=O)N[C@@H](CC(N)=O)C(=O)N[C@@H](C)C(=O)N[C@@H](CCC(N)=O)C(=O)N[C@H](C(=O)N[C@@H](CC(C)C)C(=O)N[C@@H](C)C(=O)N[C@@H](CCC(N)=O)C(=O)N[C@H](C(N)=O)C(C)C)[C@@H](C)CC)[C@@H](C)O)[C@@H](C)CC)[C@@H](C)CC)C(C)C)C(C)C [compound 68] (H-[NMeI]VLSLD[dV]PIKLK([γGlu-C16 diacid])KILLEQEKQKKQREQAETNAQILAQV-NH2)?
**A.** EC50 (human CRF2a receptor): 50 pM; Emax (% I) (CFR1R receptor): 8 % I; EC50 (CFR1R receptor): > 250000 pM

**Q.** What does the source list for CC[C@H](C)[C@H](NC(C)=O)C(=O)N[C@H](C(=O)N[C@@H](CC(C)C)C(=O)N[C@@H](CO)C(=O)N[C@@H](CC(C)C)C(=O)N[C@@H](CC(=O)O)C(=O)N[C@H](C(=O)N1CCC[C@H]1C(=O)N[C@H](C(=O)N[C@@H](CCCCN)C(=O)N[C@@](C)(CC(C)C)C(=O)N[C@@H](CCCCNC(=O)CC[C@H](NC(=O)CCCCCCCCCCCCCCC(=O)O)C(=O)O)C(=O)N[C@@H](CCCCN)C(=O)N[C@H](C(=O)N[C@@H](CC(C)C)C(=O)N[C@@H](CC(C)C)C(=O)N[C@@H](CCC(=O)O)C(=O)N[C@@H](CCC(N)=O)C(=O)N[C@@H](CCC(=O)O)C(=O)N[C@@H](CCCCN)C(=O)N[C@@H](CCC(N)=O)C(=O)N[C@@H](CCCCN)C(=O)N[C@@H](CCCCN)C(=O)N[C@@H](CCC(N)=O)C(=O)N[C@@H](CCCNC(=N)N)C(=O)N[C@@H](CCC(=O)O)C(=O)N[C@@H](CCC(N)=O)C(=O)N[C@@H](C)C(=O)N[C@@H](CCC(=O)O)C(=O)N[C@H](C(=O)N[C@@H](CC(N)=O)C(=O)N[C@H](C(=O)N[C@@H](CCC(N)=O)C(=O)N[C@H](C(=O)N[C@@H](CC(C)C)C(=O)N[C@@H](C)C(=O)N[C@@H](CCC(N)=O)C(=O)N[C@H](C(N)=O)C(C)C)[C@@H](C)CC)C(C)C)[C@@H](C)O)[C@@H](C)CC)[C@@H](C)CC)C(C)C)C(C)C [compound 49] (Ac-IVLSLDVPIK[αMeL]K([γGlu-C16 diacid])KILLEQEKQKKQREQAETNVQILAQV-NH2)?
**A.** EC50 (human CRF2a receptor): 920 pM; Emax (% I) (CFR1R receptor): −3 % I; EC50 (CFR1R receptor): > 250000 pM

**Q.** Which EC50 (human CRF2a receptor) does the source give for CC[C@H](C)[C@H](NC)C(=O)N[C@H](C(=O)N[C@@H](CC(C)C)C(=O)N[C@@H](CO)C(=O)N[C@@H](CC(C)C)C(=O)N[C@@H](CC(=O)O)C(=O)N[C@@H](C(=O)N1CCC[C@H]1C(=O)N[C@H](C(=O)N[C@@H](CCCCN)C(=O)N[C@@H](CC(C)C)C(=O)N[C@@H](CCCCNC(=O)COCCOCCNC(=O)COCCOCCNC(=O)CC[C@H](NC(=O)CCCCCCCCCCCCCCCCC(=O)O)C(=O)O)C(=O)N[C@@H](CCCCN)C(=O)N[C@H](C(=O)N[C@@H](CC(C)C)C(=O)N[C@@H](CC(C)C)C(=O)N[C@@H](CCC(=O)O)C(=O)N[C@@H](CCC(N)=O)C(=O)N[C@@H](CCC(=O)O)C(=O)N[C@@H](CCCCN)C(=O)N[C@@H](CCC(N)=O)C(=O)N[C@@H](CCCCN)C(=O)N[C@@H](CCCCN)C(=O)N[C@@H](CCC(N)=O)C(=O)N[C@@H](CCCNC(=N)N)C(=O)N[C@@H](CCC(=O)O)C(=O)N[C@@H](CCC(N)=O)C(=O)N[C@@H](C)C(=O)N[C@@H](CCC(=O)O)C(=O)N[C@H](C(=O)N[C@@H](CC(N)=O)C(=O)NC1(C(=O)N[C@@H](CCC(N)=O)C(=O)N[C@H](C(=O)N[C@@H](CC(C)C)C(=O)N[C@@H](C)C(=O)N[C@@H](CCC(N)=O)C(=O)N[C@H](C(N)=O)C(C)C)[C@@H](C)CC)CCNCC1)[C@@H](C)O)[C@@H](C)CC)[C@@H](C)CC)C(C)C)C(C)C [compound 117] (H-[NMeI]VLSLD[dV]PIKLK([AEEA-AEEA-γGlu-C18 diacid])KILLEQEKQKKQREQAETN[Api]QILAQV-NH2) here?
**A.** 630 pM

**Q.** What about the “Emax (% I)” value (CFR1R receptor) of the same molecule?
**A.** 3 % I

**Q.** What about the EC50 (CFR1R receptor) of the same molecule?
**A.** > 250000 pM
